Laboratory results reported in ChEMBL document CHEMBL1201862, “PubChem BioAssay data set” (2004).
Active and inactive are the calls of the source. Cut-off read from the data, not from the text of the source, for most assays here: actives have a measured IC50 and inactives only a lower limit.

Columns and labels:
[1] = target: T1, Sentrin-specific protease 7 (Homo sapiens, UniProt Q9BQF6); format: functional;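 note: Luminescence-based dose-response confirmation of ultra-high-throughput screening hits, measuring inhibition of SENP7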
T1 sequence (Q9BQF6 whole entry): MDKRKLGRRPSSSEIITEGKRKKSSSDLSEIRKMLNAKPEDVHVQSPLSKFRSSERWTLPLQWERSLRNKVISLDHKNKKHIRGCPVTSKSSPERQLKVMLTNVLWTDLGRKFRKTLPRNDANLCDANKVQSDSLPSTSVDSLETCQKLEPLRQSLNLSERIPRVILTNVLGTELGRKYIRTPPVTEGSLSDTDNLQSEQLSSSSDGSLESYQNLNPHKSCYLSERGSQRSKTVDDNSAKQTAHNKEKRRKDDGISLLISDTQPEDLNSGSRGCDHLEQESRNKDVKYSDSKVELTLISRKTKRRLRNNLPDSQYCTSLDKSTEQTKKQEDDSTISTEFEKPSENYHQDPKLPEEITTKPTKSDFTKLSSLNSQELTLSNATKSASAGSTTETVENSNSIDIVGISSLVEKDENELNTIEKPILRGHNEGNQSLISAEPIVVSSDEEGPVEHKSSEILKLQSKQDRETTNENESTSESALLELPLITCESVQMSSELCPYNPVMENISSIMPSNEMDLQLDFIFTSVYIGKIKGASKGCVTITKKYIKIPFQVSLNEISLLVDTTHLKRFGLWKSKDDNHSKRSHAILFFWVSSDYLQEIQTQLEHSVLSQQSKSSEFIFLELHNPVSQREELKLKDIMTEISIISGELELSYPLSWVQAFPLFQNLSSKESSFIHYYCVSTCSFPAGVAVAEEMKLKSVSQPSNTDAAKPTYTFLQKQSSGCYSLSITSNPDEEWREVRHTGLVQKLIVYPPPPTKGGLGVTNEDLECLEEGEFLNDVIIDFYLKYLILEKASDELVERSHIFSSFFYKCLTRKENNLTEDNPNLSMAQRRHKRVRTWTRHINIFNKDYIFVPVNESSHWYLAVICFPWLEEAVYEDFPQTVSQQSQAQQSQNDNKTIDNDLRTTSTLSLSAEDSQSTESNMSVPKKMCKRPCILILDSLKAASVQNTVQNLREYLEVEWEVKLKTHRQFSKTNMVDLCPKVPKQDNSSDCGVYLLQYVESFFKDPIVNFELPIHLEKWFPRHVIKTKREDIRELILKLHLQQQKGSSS

[2] = target: T2, Sentrin-specific protease 6 (Homo sapiens, UniProt Q9GZR1); format: functional;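 note: Luminescence-based dose-response confirmatory assay of SENP6 inhibition, following up an ultra-high-throughput screen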
T2 sequence (Q9GZR1 whole entry): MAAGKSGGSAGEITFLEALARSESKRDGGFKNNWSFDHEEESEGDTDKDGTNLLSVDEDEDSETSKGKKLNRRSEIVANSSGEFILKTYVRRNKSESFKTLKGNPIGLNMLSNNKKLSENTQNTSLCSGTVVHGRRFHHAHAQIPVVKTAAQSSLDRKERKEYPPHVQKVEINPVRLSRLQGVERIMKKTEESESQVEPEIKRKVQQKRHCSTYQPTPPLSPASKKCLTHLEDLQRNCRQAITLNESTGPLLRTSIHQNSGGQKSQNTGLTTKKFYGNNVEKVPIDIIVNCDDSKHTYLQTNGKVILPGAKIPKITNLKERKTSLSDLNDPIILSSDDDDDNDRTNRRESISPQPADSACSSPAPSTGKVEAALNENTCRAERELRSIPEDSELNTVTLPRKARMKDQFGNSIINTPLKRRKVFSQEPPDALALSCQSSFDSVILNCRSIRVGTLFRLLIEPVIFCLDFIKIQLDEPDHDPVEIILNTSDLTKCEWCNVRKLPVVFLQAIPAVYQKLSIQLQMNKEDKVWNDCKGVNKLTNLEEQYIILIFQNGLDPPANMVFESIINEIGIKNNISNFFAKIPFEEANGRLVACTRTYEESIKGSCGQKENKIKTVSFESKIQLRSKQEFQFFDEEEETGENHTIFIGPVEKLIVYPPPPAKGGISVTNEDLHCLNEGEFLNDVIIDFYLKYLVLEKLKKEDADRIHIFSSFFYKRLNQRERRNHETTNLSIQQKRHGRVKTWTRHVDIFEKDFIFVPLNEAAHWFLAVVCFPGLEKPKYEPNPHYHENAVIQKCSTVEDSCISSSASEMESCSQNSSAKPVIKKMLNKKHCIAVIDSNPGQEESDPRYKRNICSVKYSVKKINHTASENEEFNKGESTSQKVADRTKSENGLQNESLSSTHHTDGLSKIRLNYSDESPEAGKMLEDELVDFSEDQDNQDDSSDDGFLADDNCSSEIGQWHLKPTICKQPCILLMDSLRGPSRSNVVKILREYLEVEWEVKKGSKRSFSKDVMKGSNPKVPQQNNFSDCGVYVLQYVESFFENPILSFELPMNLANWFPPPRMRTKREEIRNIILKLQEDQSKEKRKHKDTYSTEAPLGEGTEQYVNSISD

[3] = target: T3, Sentrin-specific protease 8 (Homo sapiens, UniProt Q96LD8); format: functional;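 note: luminescence read-out of SENP8 inhibition, dose-response confirmation following an ultra-high-throughput screen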
T3 sequence (Q96LD8 whole entry): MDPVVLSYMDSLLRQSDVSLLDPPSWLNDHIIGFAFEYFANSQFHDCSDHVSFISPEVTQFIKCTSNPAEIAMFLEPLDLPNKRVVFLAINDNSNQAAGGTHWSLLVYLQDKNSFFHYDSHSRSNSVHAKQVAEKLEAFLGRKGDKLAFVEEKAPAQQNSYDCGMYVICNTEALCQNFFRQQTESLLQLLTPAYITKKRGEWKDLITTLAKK

Bcl-2-like protein 10 = target: T4, Bcl-2-like protein 10 (Homo sapiens, UniProt Q9HD36); experiment: Bcl-B/TR3 peptide binding disruption – biochemical, fluorescence polarization, FITC-TR3 peptide, selectivity assay for Bfl-1 inhibitor project, primary screen (AID 748);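 note: fluorescence polarization from a fluorescein-labelled TR3 peptide binding purified Bcl-B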
T4 sequence (Q9HD36 whole entry): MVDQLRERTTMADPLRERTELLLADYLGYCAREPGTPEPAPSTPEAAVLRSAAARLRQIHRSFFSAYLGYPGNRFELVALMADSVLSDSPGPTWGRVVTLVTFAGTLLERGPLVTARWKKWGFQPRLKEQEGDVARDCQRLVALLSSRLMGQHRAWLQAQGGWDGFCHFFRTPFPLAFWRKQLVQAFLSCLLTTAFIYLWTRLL

[4] = target: Matrix metalloproteinase-14 (Homo sapiens, UniProt P50281); experiment: Dose Response confirmation of uHTS hits for a small molecule inhibitors of MT1-MMP activation in a fluorescence assay set 1.; format: functional

SMILES | IC50 [1] | IC50 [2] | IC50 [3] | IC50 (Bcl-2-like protein 10) | IC50 [4]
CCC(=O)N(C1=C(NC)C(=O)c2ccccc2C1=O)C(C)C | 33.2 µM (active) | 16.7 µM (active) | 25 µM (active) | – | –
CC1CC(C)CN(C(=O)c2ccc3c(c2NCCO)C(=O)c2ccccc2C3=O)C1 (stereo not given) | – | – | – | 29.1 µM (active) | 69 µM (inactive)
